Laboratory results from ChEMBL document CHEMBL2390951, “Impact of fluorination on proteolytic stability of peptides in human blood plasma” (Bioorg Med Chem, 2013).
Non-standard residues stand in square brackets, D forms with d. Residues, ends and D or L forms follow the SMILES beside them. Abu(4,4,4-F3) = N[C@@H](CC(F)(F)F)C(=O)O; Abu(4,4-F2) = N[C@@H](CC(F)F)C(=O)O; 4Abz = Nc1ccc(C(=O)O)cc1; Abu = CC[C@H](N)C(=O)O

Test system: not listed separately
Test: Proteolytic stability in Tris-HCl buffer assessed as compound degradation at 20 umol/ml after 2 hrs by RP-HPLC analysis in presence of elastase relative to control
Type: ADME
Conditions: buffer, 2 h

| Stability | SMILES |
| --- | --- |
| Stable | CC[C@H](NC(=O)[C@H](C)NC(=O)[C@H](Cc1ccccc1)NC(=O)[C@H](C)NC(=O)[C@H](C)NC(=O)[C@H](CCCCN)NC(=O)c1ccc(N)cc1)C(=O)N[C@@H](C)C(=O)N[C@@H](C)C(=O)N[C@@H](CCCCN)C(=O)O (H-[4Abz]KAAFA[Abu]AAK-OH) |
| Stable | C[C@H](NC(=O)[C@H](C)NC(=O)[C@H](CC(F)F)NC(=O)[C@H](C)NC(=O)[C@H](Cc1ccccc1)NC(=O)[C@H](C)NC(=O)[C@H](C)NC(=O)[C@H](CCCCN)NC(=O)c1ccc(N)cc1)C(=O)N[C@@H](CCCCN)C(=O)O (H-[4Abz]KAAFA[Abu(4,4-F2)]AAK-OH) [listing 1 of 2 here] |
| Unstable | C[C@H](NC(=O)[C@H](C)NC(=O)[C@H](CC(F)(F)F)NC(=O)[C@H](C)NC(=O)[C@H](Cc1ccccc1)NC(=O)[C@H](C)NC(=O)[C@H](C)NC(=O)[C@H](CCCCN)NC(=O)c1ccc(N)cc1)C(=O)N[C@@H](CCCCN)C(=O)O (H-[4Abz]KAAFA[Abu(4,4,4-F3)]AAK-OH) |
| Stable | C[C@H](NC(=O)[C@H](C)NC(=O)[C@H](CC(F)(F)F)NC(=O)[C@H](Cc1ccccc1)NC(=O)[C@H](C)NC(=O)[C@H](C)NC(=O)[C@H](CCCCN)NC(=O)c1ccc(N)cc1)C(=O)N[C@@H](C)C(=O)N[C@@H](CCCCN)C(=O)O (H-[4Abz]KAAF[Abu(4,4,4-F3)]AAAK-OH) |
| Stable | CC[C@H](NC(=O)[C@H](Cc1ccccc1)NC(=O)[C@H](C)NC(=O)[C@H](C)NC(=O)[C@H](CCCCN)NC(=O)c1ccc(N)cc1)C(=O)N[C@@H](C)C(=O)N[C@@H](C)C(=O)N[C@@H](C)C(=O)N[C@@H](CCCCN)C(=O)O (H-[4Abz]KAAF[Abu]AAAK-OH) |

Same assay, conditions: elastase in Tris-HCl buffer; read-out: Drug degradation

| metabolised at 2 h, 20 umol/ml [%] | SMILES |
| --- | --- |
| ≤ 35 | C[C@H](NC(=O)[C@H](C)NC(=O)[C@H](C)NC(=O)[C@H](Cc1ccccc1)NC(=O)[C@H](CC(F)F)NC(=O)[C@H](C)NC(=O)[C@H](CCCCN)NC(=O)c1ccc(N)cc1)C(=O)N[C@@H](C)C(=O)N[C@@H](CCCCN)C(=O)O (H-[4Abz]KA[Abu(4,4-F2)]FAAAAK-OH) |
| ≤ 35 | C[C@H](NC(=O)[C@H](C)NC(=O)[C@H](CC(F)F)NC(=O)[C@H](Cc1ccccc1)NC(=O)[C@H](C)NC(=O)[C@H](C)NC(=O)[C@H](CCCCN)NC(=O)c1ccc(N)cc1)C(=O)N[C@@H](C)C(=O)N[C@@H](CCCCN)C(=O)O (H-[4Abz]KAAF[Abu(4,4-F2)]AAAK-OH) |

Test system: not listed separately
Test: (§1) Proteolytic stability in human plasma assessed as compound degradation at 1:3 compound to plasma ratio after 2 hrs by RP-HPLC analysis relative to control
Type: ADME, cell-free
Conditions: read-out: Drug degradation

| metabolised at 2 h [%] | SMILES |
| --- | --- |
| ≤ 35 | C[C@H](NC(=O)[C@H](C)NC(=O)[C@H](CC(F)F)NC(=O)[C@H](C)NC(=O)[C@H](Cc1ccccc1)NC(=O)[C@H](C)NC(=O)[C@H](C)NC(=O)[C@H](CCCCN)NC(=O)c1ccc(N)cc1)C(=O)N[C@@H](CCCCN)C(=O)O (H-[4Abz]KAAFA[Abu(4,4-F2)]AAK-OH) [listing 2 of 2 here] |

Test system: Plasma
Test: as §1
Type: ADME, cell-free
Conditions: 2 h

| Stability | SMILES |
| --- | --- |
| Stable | C[C@H](NC(=O)[C@H](C)NC(=O)[C@H](CC(F)(F)F)NC(=O)[C@H](Cc1ccccc1)NC(=O)[C@H](C)NC(=O)[C@H](C)NC(=O)[C@H](CCCCN)NC(=O)c1ccc(N)cc1)C(=O)N[C@@H](C)C(=O)N[C@@H](CCCCN)C(=O)O.O=C(O)C(F)(F)F (H-[4Abz]KAAF[Abu(4,4,4-F3)]AAAK-OH) |
| Unstable | C[C@H](NC(=O)[C@H](C)NC(=O)[C@H](CC(F)(F)F)NC(=O)[C@H](C)NC(=O)[C@H](Cc1ccccc1)NC(=O)[C@H](C)NC(=O)[C@H](C)NC(=O)[C@H](CCCCN)NC(=O)c1ccc(N)cc1)C(=O)N[C@@H](CCCCN)C(=O)O.O=C(O)C(F)(F)F (H-[4Abz]KAAFA[Abu(4,4,4-F3)]AAK-OH) |
| Stable | CC[C@H](NC(=O)[C@H](C)NC(=O)[C@H](Cc1ccccc1)NC(=O)[C@H](C)NC(=O)[C@H](C)NC(=O)[C@H](CCCCN)NC(=O)c1ccc(N)cc1)C(=O)N[C@@H](C)C(=O)N[C@@H](C)C(=O)N[C@@H](CCCCN)C(=O)O.O=C(O)C(F)(F)F (H-[4Abz]KAAFA[Abu]AAK-OH) |
| Stable | CC[C@H](NC(=O)[C@H](C)NC(=O)[C@H](CCCCN)NC(=O)c1ccc(N)cc1)C(=O)N[C@@H](Cc1ccccc1)C(=O)N[C@@H](C)C(=O)N[C@@H](C)C(=O)N[C@@H](C)C(=O)N[C@@H](C)C(=O)N[C@@H](CCCCN)C(=O)O.O=C(O)C(F)(F)F (H-[4Abz]KA[Abu]FAAAAK-OH) |
